# Measurements taken from EP0170019A1, “Carbapenems having an ether group at position 4” (F. HOFFMANN-LA ROCHE & CO. Aktiengesellschaft, priority 1984, dated 1986).
# Assays:
# Test in all cases: Minimal inhibitory concentration (MHK) on DST agar
# Type in all cases: cell-based
# E. coli 1346 = details: Escherichia coli
# Description: (§1) Die minimalen Hemmkonzentrationen (MHK) der (4S,5S,6S)--6-[(R)-1-Hydroxyäthyl]-4-methoxy-7-oxo -1-azabicyclo-[3.2.0]hept-2-en-2-carbonsäure (Verbindung A), der (4R,5S,-6S)-6-[(R)-1-Hydroxyäthyl]-3-[[(S)-1-(1-iminoäthyl) -3-pyrrolidinyl]thio]-4-methoxy-7-oxo -1-azabicyclo[3.2.0]-hept-2-en -2-carbonsäure (Verbindung B), der (4R.5S,6S)-4--Aethoxy-6-[(R)-1-hydroxyäthyl]-3-[(S) -3-pyrrolidinyl- thio]-7-oxo-1-azabicyclo[3.2.0]hept-2-en -2-carbonsäure (Verbindung C) und der (4R,5S,6S)-4-Aethoxy-6-[(R)-1--hydroxyäthyl]-3-[[(S)-1 -(1-iminoäthyl)-3-pyrrolidinyl]-thio]-7-oxo-1 -azabicyclo[3.2.0]hept-2-en-2-carbonsäure (Verbindung D) gegen eine Reihe pathogener Mikroorganismen wurden auf DST-Agar (Diagnostic Sensitivity Test Agar) bestimmt. Die erhaltenen Resultate sind in der nachfolgenden Tabelle aufgeführt:
# (§2) Die ß-Lactamase produzierenden Organismen sind mit einem ^* bezeichnet.
# Staph. aureus 6538 = details: Staphylococcus aureus
# Description: as §1, §2
# Klebs. aerogenes 1082E* = details: Klebsiella aerogenes, Klebs. aerogenes 1082E* (ß-Lactamase producing)
# Description: as §1, §2
# Pseudomonas aer. 1559E* = Pseudomonas aer. 1559E* (ß-Lactamase producing)
# Description: as §1, §2
# E. coli 1527 E* = details: Escherichia coli, E. coli 1527 E* (ß-Lactamase producing)
# Description: as §1, §2
# Klebs. pneumoniae 418* = details: Klebsiella pneumoniae, Klebs. pneumoniae 418* (ß-Lactamase producing)
# Description: as §1, §2
# Salmonella typh. BA = system: Salmonella typh. BA
# Description: as §1, §2
# E. coli TEM 1* = details: Escherichia coli, read-out: MHK
# Description: as §1, §2
# Prot. mirabilis 2117* = details: Proteus mirabilis, Prot. mirabilis 2117* (ß-Lactamase producing)
# Description: as §1, §2
# [1] = system: Serratia marcescens 69438
# Description: as §1, §2
# [2] = system: Acinetobacter anitr. 5I-156; details: ANITR.5I156
# Description: as §1, §2
# Pseudomonas aer. BA* = Pseudomonas aer. BA* (ß-Lactamase producing)
# Description: as §1, §2
# [3] = system: Serratia marcescens 803/15*; details: Serratia marcescens 803/15* (ß-Lactamase producing)
# Description: as §1, §2
# Prot. mirabilis 29H = details: Proteus mirabilis
# Description: as §1, §2
# Staph. aureus 887* = details: Staphylococcus aureus, Staph. aureus 887* (ß-Lactamase producing)
# Description: as §1, §2
# E. coli 25922 = details: Escherichia coli
# Description: as §1, §2
# [4] = system: Enterobacter cloacae 908*; details: Enterobacter cloacae 908* (ß-Lactamase producing)
# Description: as §1, §2
# [5] = system: Enterobacter cloacae 15M*; details: Enterobacter cloacae 15M* (ß-Lactamase producing)
# Description: as §1, §2
# Prot. vulgaris 1028* = details: Proteus vulgaris, Prot. vulgaris 1028* (ß-Lactamase producing)
# Description: as §1, §2
# Strept. faecalis 6 = details: Enterococcus faecalis
# Description: as §1, §2
Compound,MIC (E. coli 1346) [µg/mL],MIC (Staph. aureus 6538) [µg/mL],MIC (Klebs. aerogenes 1082E*) [µg/mL],MIC (Pseudomonas aer. 1559E*) [µg/mL],MIC (E. coli 1527 E*) [µg/mL],MIC (Klebs. pneumoniae 418*) [µg/mL],MIC (Salmonella typh. BA) [µg/mL],MIC (E. coli TEM 1*) [µg/mL],MIC (Prot. mirabilis 2117*) [µg/mL],MIC [1] [µg/mL],MIC [2] [µg/mL],MIC (Pseudomonas aer. BA*) [µg/mL],MIC [3] [µg/mL],MIC (Prot. mirabilis 29H) [µg/mL],MIC (Staph. aureus 887*) [µg/mL],MIC (E. coli 25922) [µg/mL],MIC [4] [µg/mL],MIC [5] [µg/mL],MIC (Prot. vulgaris 1028*) [µg/mL],MIC (Strept. faecalis 6) [µg/mL]
"CCO[C@H]1C(S[C@H]2CCNC2)=C(C(=O)O)N2C(=O)[C@H]([C@@H](C)O)[C@@H]12 [Verbindung C, (4R.5S,6S)-4--Aethoxy-6-[(R)-1-hydroxyäthyl]-3-[(S) -3-pyrrolidinyl-thio]-7-oxo-1-azabicyclo[3.2.0]hept-2-en-2-carbonsäure]",0.5,0.25,2,64,0.25,2,0.5,0.5,16,8,1,32,4,32,0.5,0.5,1,1,32,32
"CO[C@H]1C=C(C(=O)O)N2C(=O)[C@H]([C@@H](C)O)[C@@H]12 [Verbindung A, (4S,5S,6S)--6-[(R)-1-Hydroxyäthyl]-4-methoxy-7-oxo-1-azabicyclo-[3.2.0]hept-2-en-2-carbonsäure]",0.5,0.5,1,> 32,0.5,0.5,1,1,4,2,2,32,2,8,1,1,1,1,4,32
"CO[C@H]1C(S[C@H]2CCN(C(C)=N)C2)=C(C(=O)O)N2C(=O)[C@H]([C@@H](C)O)[C@@H]12 [Verbindung B, (4R,5S,-6S)-6-[(R)-1-Hydroxyäthyl]-3-[[(S)-1-(1-iminoäthyl) -3-pyrrolidinyl]thio]-4-methoxy-7-oxo-1-azabicyclo[3.2.0]-hept-2-en-2-carbonsäure]",0.4,0.1,0.8,25,0.4,0.4,0.8,,12.5,3.1,0.4,25,3.1,25,0.2,0.8,0.8,0.8,12.5,12.5
"CCO[C@H]1C(S[C@H]2CCN(C(C)=N)C2)=C(C(=O)O)N2C(=O)[C@H]([C@@H](C)O)[C@@H]12 [Verbindung D, (4R,5S,6S)-4-Aethoxy-6-[(R)-1--hydroxyäthyl]-3-[[(S)-1-(1-iminoäthyl)-3-pyrrolidinyl]-thio]-7-oxo-1-azabicyclo[3.2.0]hept-2-en-2-carbonsäure]",1,0.25,2,64,1,2,2,0.5,16,8,2,64,8,32,0.5,2,4,4,16,32
